Data published in patent US9981928B2, “Aryl sulfide derivatives and aryl sulfoxide derivatives as acaricides and insecticides” (BAYER CROPSCIENCE AKTIENGESELLSCHAFT, priority 2013, dated 2018).
Like-named read-outs stand apart in the source and are kept apart here.

Test: log P determination by HPLC on reversed-phase columns (C 18), analogously to OECD Guideline 117
Type: physicochemical
Settings: for logP (HCOOH): LC-MS in the acidic range, pH 2.7, 0.1% aqueous formic acid / acetonitrile; for logP (HCOOH) / logP (neutral): HPLC reversed-phase C 18; for logP (neutral): LC-MS in the neutral range, pH 7.8, 0.001 molar aqueous ammonium hydrogencarbonate / acetonitrile
Procedure: The log P values were determined analogously to OECD Guideline 117 (EC Directive 92/69/EEC) by HPLC (high-performance liquid chromatography) using reversed-phase columns (C 18), by the following methods:
[a] The LC-MS determination in the acidic range was effected at pH 2.7 with 0.1% aqueous formic acid and acetonitrile (contains 0.1% formic acid) as eluents; linear gradient from 10% acetonitrile to 95% acetonitrile. log P^[a] is also referred to as log P(HCOOH). [b] LC-MS determination in the neutral range was effected at pH 7.8 with 0.001 molar aqueous ammonium hydrogencarbonate solution and acetonitrile as eluents; linear gradient from 10% acetonitrile to 95% acetonitrile. log P^[…] is also referred to as log P(neutral).

[1] = reversed-phase C18 HPLC column, acidic range, pH 2.7, 0.1% aqueous formic acid and acetonitrile, read-out: log P[a] / log P(HCOOH)
[2] = reversed-phase C18 HPLC column, neutral range, pH 7.8, 0.001 molar aqueous ammonium hydrogencarbonate and acetonitrile, read-out: log P[b] / log P(neutral)
[3] = acidic range, pH 2.7, 0.1% aqueous formic acid and acetonitrile, read-out: log P[a] / log P(HCOOH)

Row | Compound | logP (HCOOH) | logP (neutral) | chromatographic logP [1] | further results
1 | Cc1cc(F)c(-n2c(=O)n(C3CC3)c(=O)n2C)cc1[S+]([O-])CC(F)(F)F (single isomer, unassigned) [Example 197] | 1.97 | 1.89 |  | 
2 | CCn1[nH]c(=O)n(CC)c1=O [1,4-Diethyl-1,2,4-triazolidine-3,5-dione] |  |  | 0.14 | 
3 | CCn1[nH]c(=O)n(-c2ccccc2)c1=O [1-Ethyl-4-phenyl-1,2,4-triazolidine-3,5-dione] |  |  | 0.91 | 
4 | Cc1cc(F)c(NCC(C)O)cc1SCC(F)(F)F (stereo not drawn) [1-[2-Fluoro-4-methyl-5-(2,2,2-trifluoroethylsulfanyl)aniline]propan-2-ol] |  |  | 3.01 | 
5 | Cn1[nH]c(=O)n(-c2cccc(C(F)(F)F)c2)c1=O [1-methyl-4-[3-(trifluoromethyl)phenyl]-1,2,4-triazolidine-3,5-dione] |  |  | 1.53 | 
6 | Cc1cc(F)c(NC(=S)NCC(F)(F)F)cc1SCC(F)(F)F [1-{2-Fluoro-4-methyl-5-[(2,2,2-trifluoroethyl)sulfanyl]phenyl}-3-(2,2,2-trifluoroethyl)thiourea] |  |  | 3.32 | chromatographic logP [2]: 3.24
7 | Cc1cc(F)c(NC(=O)OCCCl)cc1SCC(F)(F)F [2-Chloroethyl N-[2-fluoro-4-methyl-5-(2,2,2-trifluoroethylsulfanyl)phenyl]carbamate] |  |  |  | chromatographic logP [3]: 3.45
8 | CC1(C)OB(c2cc(SCC(F)(F)F)c(Cl)cc2Cl)OC1(C)C [2-{2,4-Dichloro-5-[(2,2,2-trifluoroethyl)sulfanyl]phenyl}-4,4,5,5-tetramethyl-1,3,2-dioxaborolane] |  |  | 5.68 | chromatographic logP [2]: 5.31
9 | Cc1cc(C)c(B2OC(C)(C)C(C)(C)O2)cc1SCC(F)(F)F [2-{2,4-Dimethyl-5-[(2,2,2-trifluoroethyl)sulfanyl]phenyl}-4,4,5,5-tetramethyl-1,3,2-dioxaborolane] |  |  | 5.75 | chromatographic logP [2]: 5.64
10 | Cc1cc(F)c(B2OC(C)(C)C(C)(C)O2)cc1SCC(F)(F)F [2-{2-Fluoro-4-methyl-5-[(2,2,2-trifluoroethyl)sulfanyl]phenyl}-4,4,5,5-tetramethyl-1,3,2-dioxaborolane] |  |  | 4.91 | chromatographic logP [2]: 4.81
11 | CC1(C)OB(c2ccc(Cl)c(SCC(F)(F)F)c2)OC1(C)C [2-{4-Chloro-3-[(2,2,2-trifluoroethyl)sulfanyl]phenyl}-4,4,5,5-tetramethyl-1,3,2-dioxaborolane] |  |  | 5.27 | chromatographic logP [2]: 5.16
12 | COc1ccc(B2OC(C)(C)C(C)(C)O2)cc1SCC(F)(F)F [2-{4-Methoxy-3-[(2,2,2-trifluoroethyl)sulfanyl]phenyl}-4,4,5,5-tetramethyl-1,3,2-dioxaborolane] |  |  | 4.54 | chromatographic logP [2]: 4.46
13 | Cc1cc(F)c(-n2c(=O)[nH]n(C)c2=O)cc1SCC(F)(F)F [4-[2-Fluoro-4-methyl-5-[(2,2,2-trifluoroethyl)sulfanyl]phenyl]-1-methyl-1,2,4-triazolidine-3,5-dione] |  |  | 2.02 | 
14 | Cc1cc(F)c(-n2c(=S)n(C3CC3)c(=O)n2C)cc1SCC(F)(F)F [4-cyclopropyl-1-{2-fluoro-4-methyl-5-[(2,2,2-trifluoroethyl)sulfanyl]phenyl}-2-methyl-5-thioxo-1,2,4-triazolidin-3-one] |  |  | 3.24 | chromatographic logP [2]: 3.18
15 | Cc1cc(F)c(-n2c(=O)[nH][nH]c2=O)cc1SCC(F)(F)F [4-{2-Fluoro-4-methyl-5-[(2,2,2-trifluoroethyl)sulfanyl]phenyl}-1,2,4-triazolidine-3,5-dione] |  |  | 1.82 | 
16 | C=CCOC(=O)Nc1cc(SCC(F)(F)F)c(C)cc1F [Allyl N-[2-fluoro-4-methyl-5-(2,2,2-trifluoroethylsulfanyl)phenyl]carbamate] |  |  |  | chromatographic logP [3]: 3.59
17 | CCOC(=O)NNC(=O)Nc1cc(SCC(F)(F)F)c(C)cc1F [Ethyl 2-({2-fluoro-4-methyl-5-[(2,2,2-trifluoroethyl)sulfanyl]phenyl}carbamoyl)hydrazinecarboxylate] |  |  |  | chromatographic logP [3]: 2.41
18 | Cc1cc(C)c([S+]([O-])CC(F)(F)F)cc1N1CCNC1=O (stereo not drawn) [Example 4, 1-{2,4-Dimethyl-5-[(2,2,2-trifluoroethyl)sulfinyl]phenyl}imidazolidin-2-one] |  |  | 1.51 | chromatographic logP [2]: 1.52
19 | Cn1c(=O)n(C2CC2)c(=O)n1-c1cc(SCC(F)(F)F)c(F)cc1F [Example 71] | 2.67 | 2.62 |  | 
20 | CCC(C)n1c(=O)n(C2CC2)c(=O)n1-c1cc(SCC(F)(F)F)c(C)cc1F (stereo not drawn) [Example 73] | 3.86 | 3.72 |  | 
21 | CCC(C)n1c(=O)n(C2CC2)c(=O)n1-c1cc([S+]([O-])CC(F)(F)F)c(C)cc1F (stereo not drawn) [Example 75] | 2.73 | 2.68 |  | 
22 | Cc1cc(F)c(-n2c(=O)n(C)c(=O)n2-c2cc(F)c(C#N)cc2F)cc1SCC(F)(F)F [Example 78] | 3.40 | 3.29 |  | 
23 | Cc1cc(F)c(-n2c(=O)n(C)c(=O)n2C2CCCC2)cc1SCC(F)(F)F [Example 86] | 3.75 | 3.67 |  | 
24 | CCn1c(=O)n(-c2ccccc2)c(=O)n1-c1cc([S+]([O-])CC(F)(F)F)c(C)cc1F (stereo not drawn) [Example 88, 1-Ethyl-2-{2-fluoro-4-methyl-5-[(2,2,2-trifluoroethyl)sulfinyl]phenyl}-4-phenyl-1,2,4-triazolidine-3,5-dione] |  |  | 2.71 | chromatographic logP [2]: 2.66
25 | CCn1c(=O)n(C(C)C)c(=O)n1-c1cc([S+]([O-])CC(F)(F)F)c(C)cc1F (stereo not drawn) [Example 93] | 2.58 | 2.54 |  | 
26 | Cc1cc(F)c(-n2c(=O)n(C(C)(C)C)c(=O)n2C)cc1[S+]([O-])CC(F)(F)F (stereo not drawn) [Example 95] | 2.69 | 2.65 |  | 
27 | Cc1cc(F)c(-n2c(=O)n(C)c(=O)n2C2C=CCCC2)cc1[S+]([O-])CC(F)(F)F (stereo not drawn) [Example 96] | 2.66 | 2.61 |  | 
28 | CCn1c(=O)n(CC)n(-c2ccc(C)c(SCC(F)(F)F)c2)c1=O [Example 100, 1,4-Diethyl-2-{4-methyl-3-[(2,2,2-trifluoroethyl)sulfanyl]phenyl}-1,2,4-triazolidine-3,5-dione] |  |  | 3.32 | chromatographic logP [2]: 3.29
29 | Cc1cc(F)c(-n2c(=O)n(C3CC3)c(=O)n2C)cc1SCC(F)(F)F [Example 128] | 3.49 | 3.45 |  | 

Now from value to compound, other results behind:

Row | logP (HCOOH) | logP (neutral) | chromatographic logP [1] | Compound | further results
30 | 3.40 | 3.35 |  | Cc1cc(F)c(-n2c(=O)n(C(C)C)c(=O)n2C(C)(C)C)cc1[S+]([O-])CC(F)(F)F (racemic) [Example 152] | 
31 | 2.95 | 3.04 |  | Cc1cc(F)c(-n2c(=O)n(C(C)C)c(=O)n2CC(F)(F)F)cc1[S+]([O-])CC(F)(F)F (racemic) [Example 153] | 
32 | 2.69 | 1.10 |  | Cc1cc(F)c(-n2[nH]c(=O)n(-c3cccc(C(F)(F)F)c3)c2=O)cc1[S+]([O-])CC(F)(F)F (racemic) [Example 158] | 
33 | 3.24 |  |  | Cc1cc(F)c(N2C(=O)C(=O)N(C3CC3)C2=O)cc1SCC(F)(F)F [Example 102] | 
34 |  |  | 2.32 | Cc1cc(F)c(N2C(=O)C(=O)N(CC(F)F)C2=O)cc1[S+]([O-])CC(F)(F)F (stereo not drawn) [Example 103, 1-(2,2-Difluoroethyl)-3-{2-fluoro-4-methyl-5-[(2,2,2-trifluoroethyl)sulfinyl]phenyl}imidazolidine-2,4,5-trione] | chromatographic logP [2]: 0.87
35 |  |  | 1.79 | Cc1cc(F)c(N2C(=O)OCC2C)cc1[S+]([O-])CC(F)(F)F (stereo not drawn) [Example 107, 3-[2-Fluoro-4-methyl-5-(2,2,2-trifluoroethylsulfinyl)phenyl]-4-methyloxazolidin-2-one] | 
36 |  |  | 2.07 | CCn1c(=O)n(-c2cc([S+]([O-])CC(F)(F)F)c(C)cc2F)c(=O)n1CC (stereo not drawn) [Example 119, 1,2-Diethyl-4-{2-fluoro-4-methyl-5-[(2,2,2-trifluoroethyl)sulfinyl]phenyl}-1,2,4-triazolidine-3,5-dione] | 
37 | 4.08 | 4.07 |  | Cc1cc(F)c(-n2c(=O)n(C3CC3)c(=O)n2C(C)(C)C)cc1SCC(F)(F)F [Example 144] | 
38 | 3.85 | 3.90 |  | Cc1cc(F)c(-n2c(=O)n(C(C)C)c(=O)n2CC(F)(F)F)cc1SCC(F)(F)F [Example 146] | 
39 | 3.82 | 3.78 |  | CCn1c(=O)n(CC(C)C)n(-c2cc(SCC(F)(F)F)c(C)cc2F)c1=O [Example 148] | 
40 | 4.27 | 4.21 |  | Cc1cc(F)c(-n2c(=O)n(C(C)C)c(=O)n2CC(C)C)cc1SCC(F)(F)F [Example 149] | 
41 |  |  | 2.05 | Cc1cc(F)c(N2C(=O)N(C)C(=O)C2(C)C)cc1[S+]([O-])CC(F)(F)F (stereo not drawn) [Example 216, 1-[2-Fluoro-4-methyl-5-(2,2,2-trifluoroethylsulfinyl)phenyl]-3,5,5-trimethylimidazolidine-2,4-dione] | 
42 |  |  | 2.81 | Cc1cc(F)c(NC(=O)C(C)(C)O)cc1SCC(F)(F)F [N-[2-Fluoro-4-methyl-5-(2,2,2-trifluoroethylsulfanyl)phenyl]-2-hydroxy-2-methylpropanamide] | 
43 |  |  | 2.4 | OB(O)c1ccc(Cl)c(SCC(F)(F)F)c1 [VIIIa-3, {4-Chloro-3-[(2,2,2-trifluoroethyl)sulfanyl]phenyl}boronic acid] | chromatographic logP [2]: 2.41
